# In a melting point compilation (Tetko et al.; mined from patent text by program, amines drawn as free bases though some values may be those of a salt):
row,Structure (SMILES),melting point
1,CCN(O)C(=O)Cc1ccc2c(c1)C(=O)c1ccccc1CO2,119 to 121 °C
2,O=S(=O)(Nc1ncnc(Cl)c1-c1ccc(C(F)(F)F)cc1)c1ccc(Cl)cc1,262 to 264 °C
3,CCCCCC(=O)c1ncc(S(N)(=O)=O)s1,124 to 125 °C
4,Clc1ccc2[nH]c3c4c(Cl)cccc4nc-3cc2c1,221 to 222 °C
5,CCC(=C[N+](=O)[O-])NCc1ccc(Cl)nc1,95 to 98 °C
6,CCC(CC)OC(=O)c1ccc(C(=O)NS(=O)(=O)c2ccc(CCNC(=O)c3cc(OC)ccc3Cl)cc2)cn1,174 to 176 °C
7,CC(C)[C@H](C[C@H](O)[C@H](C)NC(=O)OC(C)(C)C)C(=O)NCc1cccnc1,147 to 149 °C
8,COc1cc2nc(-c3ccc(Cl)cc3)nc(Cl)c2cc1OC,204 to 206 °C
9,CCOc1nn(Cc2ccc(OCc3nc(-c4cccs4)oc3C)cc2)cc1CCC(=O)O,156 to 157 °C
10,COc1cc2c(cc1OC)-c1c([N+](=O)[O-])sc(=N)n1CC2,220 to 221 °C
11,COc1ccccc1NC(=O)Nc1nc(Nc2ccccc2-c2ccccc2)nc(N(CCC(=O)O)Cc2cc(C(F)(F)F)cc(C(F)(F)F)c2)n1,132 to 135 °C
12,O=C(O)COc1ccc([C@H]2c3ccc(O)cc3OC[C@H]2c2ccccc2)cc1 (racemic),178 °C
13,COc1ccc(-c2[nH]nc3c2C(=O)c2c(NC(=O)NNC(=O)c4ccccc4OC)cccc2-3)cc1,269 °C
14,CCCCCOc1nc(N)c2ncn(C3CCCCC3)c2n1,64 to 68 °C
15,CNC(=O)CC=C(CC(C)C)C(=O)OC(C)(C)C,35 to 36 °C
16,C=CCC(C#N)(C#N)C(C)(C)c1cccc(Cl)c1,84.3 °C
17,C=CCn1c(=O)ccc2cc(F)c(-n3c(=O)cc(C(F)(F)F)n(C)c3=O)cc21,178 to 179 °C
18,CCOC(=O)CCN1CCN(CC=CC(=O)Nc2cc3c(Nc4ccc(F)c(Cl)c4)ncnc3cc2OCC2CC2)CC1,183 to 185 °C
19,O=CCC1Cc2cc(Cl)c(Cl)cc2C1=O (racemic),93 to 96 °C
20,CCCc1c(OCC2(O)CCCCC2Sc2ccc(C(=O)CCC(=O)O)cc2)ccc(C(C)=O)c1O (centres undefined),55 to 57 °C
21,COC(=O)CCCCCCC1=CCC(O)C1=O (centres undefined),62.5 to 63.5 °C
22,COC(=O)c1[nH]c(=O)n(C(=O)NCCCN2CCC(C(=O)OC)(c3ccccc3)CC2)c1-c1ccc(F)c(F)c1,134 to 136 °C
23,CCCCc1nc2c(N)nc(C)c(C)c2n1CCCCNC(=O)c1ccccc1,128 to 129 °C

row,Structure (SMILES),melting point
1,Cc1nc(N)ccc1-c1ccccc1,110 to 113 °C
2,CCN1CCN(C(=O)c2ccc(-c3cc(-c4c(-c5cccc(C)n5)nc5c(C)cccn45)ccn3)cc2)CC1,212 °C
3,Cc1nc2cc(C(c3cccc(Cl)c3)n3ccnc3)ccc2[nH]c1=O (centres undefined),271 °C
4,CCn1c(COC(=O)OCc2nc(C(C)C)c(Sc3cc(Cl)cc(Cl)c3)n2CC)nc(C(C)C)c1Sc1cc(Cl)cc(Cl)c1,73 to 76 °C
5,CCCn1cc(C2(c3cccc(Br)c3)N=C(N)N(C)C2=O)cc1C(=O)CC (centres undefined),260 °C
6,O=C(NC1CCOCC1)c1ccc(-c2ccc3nnn(Cc4ccc5ncccc5c4)c3n2)cc1,202 to 205 °C
7,CCc1noc(-c2cn(-c3cccc(Oc4ccc(N)cc4)c3)cn2)n1,131 to 133 °C
8,CC(C)NS(=O)(=O)c1sccc1-c1cccc2cc(-c3ncc(CCl)s3)[nH]c12,184 to 185 °C
9,COCCN1CCc2ccc(Nc3ncc(Cl)c(Nc4ccccc4C(=O)NC4CC4)n3)cc2CC1,165 to 180 °C
10,CC(=O)N1CCC(=O)C(C(c2ccc(Cl)cc2)c2ccc(Cl)cc2)C1 (centres undefined),169 to 171 °C
11,COc1ccc(COCc2ccc(OC)cc2)cc1,58 to 59 °C
12,CCOC(=O)c1cn([C@@H](C)CO)c2c(F)c(N3CCN(C)CC3)c(F)cc2c1=O,195 to 197 °C
13,CC(=O)Oc1cc(C(C)C)ccc1C1(OC(C)=O)C(=O)c2ccccc2C1=O,136 to 137 °C
14,CCOCCOc1cccc2oc(-c3ccccc3)cc(=O)c12,94 to 96 °C
15,CCOC(C)n1cnc(-c2ccc(F)cc2)c1-c1ccc(F)cc1 (centres undefined),105 to 107 °C
16,O=C(O)CN1C(=O)OC[C@@H]1c1ccccc1,106 to 108 °C
17,CCOC(=O)c1cc2cc(N=[N+]=[N-])ccc2[nH]1,140 °C
18,O=C1CNC(=O)C(CSC(c2ccccc2)(c2ccccc2)c2ccccc2)N1 (centres undefined),225 to 227 °C
19,NC(=O)NCc1ccc2c(c1)CN(C1CCC(=O)NC1=O)C2=O (centres undefined),224 to 226 °C
20,CCc1cc(C(N)=O)nn1CC,129 to 131 °C
21,c1c2c(cc3c1OCO3)CN(CN1CCc3cc4c(cc3C1)OCO4)CC2,116 °C
22,O=c1c2cc(O)c(O)cc2c2cc(O)c(O)cc2n1CCCc1ccccc1,155 to 158 °C
23,CC(C)n1nc(-c2sc(NC(=O)c3cccc(C(F)(F)F)c3)nc2-c2ccccc2)ccc1=O,237 to 238 °C

row,Structure (SMILES),melting point
1,O=C(CBr)C1=Cc2ccccc2OC1,87 °C
2,O=[N+]([O-])C=Cc1cccc2[nH]ccc12,152 to 154 °C
3,CN1Cc2c(C(=O)OC(C)(C)C)ncn2-c2ccc(F)cc2C1=O,228 to 229 °C
4,O=C1c2ccccc2C(=O)N1CCCCCCc1cccnc1,90 to 92 °C
5,COC(=O)c1ccc(-c2nc(-c3ccc(C(C)(C)C)cc3)cs2)cc1,154 to 155 °C
6,Cc1cc(N2CCOCC2)c2cccc(OCc3c(Cl)ccc(-n4cccc4CNC(=O)C=Cc4ccc(C(=O)O)cc4)c3Cl)c2n1,174 to 180 °C
7,O=C(Cc1cccnc1)N1CCC(=C2c3ccc(Cl)cc3CCc3c(Cl)ccnc32)CC1,59.8 to 63.5 °C
8,O=C(CCCSc1nc[nH]n1)NC/C=C\COc1cc(CN2CCCCC2)ccn1,87 to 89 °C
9,O=C1CCC(N2C(=O)c3cccc(OCc4nc(CN5CCOCC5)cs4)c3C2=O)C(=O)N1 (centres undefined),210 to 212 °C
10,CC(=O)Nc1ccc(-c2nnn(-c3ccc(C(F)(F)F)cc3F)c2N)cc1,115 to 116 °C
11,COC(=O)C(C)(C)Nc1nc(Cl)ccc1[N+](=O)[O-],96 to 97 °C
12,CC(=O)OCC(=O)C1(O)C(C)CC2C3CC(C)C4=CC(=O)C=CC4(C)C3=CCC21C (centres undefined),215 to 216 °C
13,Cc1c(-c2ccncc2)[nH]c(-c2ccncc2)c1C=O,278 to 280 °C
14,COc1cccc2c1CCC(C(=O)O)C2C(=O)O (centres undefined),200 to 201 °C
15,CCCCC1(CC)OCc2c1cnc(C)c2OCC(=O)O (centres undefined),193 °C
16,CCn1ncc(N=O)c1N,135 to 136 °C
17,CC(=O)C1(OC=O)CCC2C3CCC4=CC(=O)C=CC4(C)C3CCC21C (centres undefined),201 to 205 °C
18,CC(C)(C)NCC(O)COc1ccccc1C=Cc1cccc2c1CC(=O)N2 (centres undefined),112 °C
19,CC(=O)OCC1CC(Nc2cc(Cl)c(Cl)cc2N)C(OC(C)=O)C1OC(C)=O (centres undefined),124 to 125 °C
20,C[C@H]1Cc2c(Cl)c(Cl)cc3c(=O)c(C(=O)O)cn1c23,268 to 270 °C
21,CCN1c2ncccc2C(OS(C)(=O)=O)Nc2c(C)cc(C)nc21 (centres undefined),154 to 155 °C
22,O=C(O)CCCc1ccc(C(=O)CCCc2ccccc2)cc1,111 to 112 °C
23,CCNC(=O)C1=C(C(=O)Nc2cc(OC3CCCC3)c(Cl)cc2F)CCCC1,187 to 189 °C
